Measurements taken from patent publication US6989443B2, “Carboranylporphyrins and uses thereof” (Brookhaven Science Associates, LLC, priority 2004, dated 2006).
One block for each compound: values may come before it.

Tests used:
[1] = tested on: EMT-6 mammary carcinomas; assay: Biodistribution of porphyrin IX in mice bearing EMT-6 carcinomas (tissue boron analyses); assay type: in vivo, BALB/c mice; details: for Average boron concentration, Blood / Average boron concentration, Brain / Average boron concentration, EMT-6 Tumor / Average boron concentration, Liver: 87 mg/kg (30 mg B/kg) in 3 i.p. injections over 8 hours, n = 5
Protocol: (§1) BALB/c mice bearing subcutaneously implanted EMT-6 mammary carcinomas implanted on the dorsal thorax were given a total dose of 87 milligrams porphyrin compound (IX) per kilogram body weight (30 mg B/kg) in 3 intraperitoneal (i.p.) injections over a period of 8 hours. At two and four days after the last injection, mice were euthanized, and tumor, blood, brain, and liver were removed for boron analyses. The blood was first analyzed for hematologic parameters that indicate toxicity before it was analyzed for boron.

[2] = Weight changes and hematologic parameters from porphyrin (IX) in mice; details: for % Weight change / Granulocytes / Lymphocytes / Platelets: median (and range)
Protocol: as §1

[3] = tested on: malignant brain tumors; details: in vivo; cited from earlier work
[4] = 2 days after last injection, 87 mg/kg (30 mg B/kg)
[5] = 4 days after last injection, 87 mg/kg (30 mg B/kg)

Average boron concentration, Blood ([1]; 2 days after last injection): 0.5 ± 0.2 μg B/g
Average boron concentration, Brain ([1]; 2 days after last injection): 0.2 ± 0.0 μg B/g
Average boron concentration, EMT-6 Tumor ([1]; 2 days after last injection): 43.5 ± 10.0 μg B/g
Average boron concentration, Liver ([1]; 2 days after last injection): 353 ± 55 μg B/g
Average boron concentration, Blood ([1]; 4 days after last injection): 0.2 ± 0.1 μg B/g
Average boron concentration, Brain ([1]; 4 days after last injection): 0.3 ± 0.2 μg B/g
Average boron concentration, EMT-6 Tumor ([1]; 4 days after last injection): 27.8 ± 7.6 μg B/g
Average boron concentration, Liver ([1]; 4 days after last injection): 250 ± 70 μg B/g
tumor to brain boron ratio ([1]; EMT-6 tumor-bearing mice, compared with tumor to blood ratio): even higher
tumor boron concentrations, adequacy for therapy ([1]; particularly at the two-day time-point): adequate for therapy
platelet count compared to solvent-only mice ([2]; 2-day time point): small but significant decrease
% Weight change [2, 4]: 0.4 (−4.9–2.5) %
Granulocytes [2, 4]: 53 (42–60) % WBC
Lymphocytes [2, 4]: 44 (37–56) % WBC
Platelets [2, 4]: 193 (51–432) 10^3/mm^3
% Weight change [2, 5]: −0.6 (−4.7–1.5) %
Granulocytes [2, 5]: 62 (57–67) % WBC
Lymphocytes [2, 5]: 35 (30–39) % WBC
Platelets [2, 5]: 917 (670–1128) 10^3/mm^3
Compound: Copper meso-5,10,15,20-tetrakis[3-(3,5-o-dicarboranyl methoxybenzyloxy)phenyl]porphyrin [Porphyrin compound (IX)]
weight change compared to solvent-injected mice ([2]; 87 mg/kg (30 mg B/kg)): no differences between porphyrin- and solvent-injected mice
platelet count compared to solvent-only group ([2]; 4-day time point): rebounded to a level greater than those from the solvent-only group

Compound: N[C@@H](Cc1ccc(B(O)O)cc1)C(=O)O [BPA, p-boronophenylalanine]
chemical toxicity [3]: low chemical toxicity
